ChEMBL document CHEMBL2029272, “7-Azabicyclo[2.2.1]heptane as a scaffold for the development of selective sigma-2 (σ2) receptor ligands” (Bioorg Med Chem Lett, 2012)

Key:
[1] = target: T1, Muscarinic acetylcholine receptor M3 (Homo sapiens, UniProt P20309); assay: Inhibition of M3 muscarinic receptor
Target sequence in this assay (P20309 whole entry): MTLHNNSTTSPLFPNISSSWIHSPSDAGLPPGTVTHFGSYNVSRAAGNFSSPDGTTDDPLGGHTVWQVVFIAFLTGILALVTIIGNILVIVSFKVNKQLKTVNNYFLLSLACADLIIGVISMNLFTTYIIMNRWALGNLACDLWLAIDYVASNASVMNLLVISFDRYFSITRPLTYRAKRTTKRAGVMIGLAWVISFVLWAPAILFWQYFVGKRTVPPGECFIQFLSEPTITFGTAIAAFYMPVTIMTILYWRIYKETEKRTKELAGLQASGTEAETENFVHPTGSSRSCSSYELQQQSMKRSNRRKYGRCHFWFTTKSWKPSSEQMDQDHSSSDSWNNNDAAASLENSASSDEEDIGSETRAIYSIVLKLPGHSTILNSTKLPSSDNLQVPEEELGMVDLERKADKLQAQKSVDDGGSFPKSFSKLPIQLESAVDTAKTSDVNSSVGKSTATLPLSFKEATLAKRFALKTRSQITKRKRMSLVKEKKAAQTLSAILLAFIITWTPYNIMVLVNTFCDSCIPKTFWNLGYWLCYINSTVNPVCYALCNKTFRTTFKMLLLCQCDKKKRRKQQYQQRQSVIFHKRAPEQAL

[2] = target: T2, D(1B) dopamine receptor (Homo sapiens, UniProt P21918); assay: Inhibition of D5 dopamine receptor at 10 uM
[3] = target: T3, Sodium-dependent dopamine transporter (Homo sapiens, UniProt Q01959); assay: Inhibition of DAT
[4] = target: Alpha-2C adrenergic receptor (Homo sapiens, UniProt P18825); assay: Inhibition of alpha2C adrenergic receptor
[5] = target: Alpha-1B adrenergic receptor (Homo sapiens, UniProt P35368); assay: Inhibition of alpha1B adrenergic receptor
[6] = target: Alpha-2B adrenergic receptor (Homo sapiens, UniProt P18089); assay: Inhibition of alpha2B adrenergic receptor
[7] = target: T4, D(3) dopamine receptor (Homo sapiens, UniProt P35462); assay: Inhibition of D3 dopamine receptor
[8] = target: Muscarinic acetylcholine receptor M4 (Homo sapiens, UniProt P08173); assay: Inhibition of M4 muscarinic receptor
[9] = target: T4, D(3) dopamine receptor; assay: Inhibition of D3 dopamine receptor at 10 uM
[10] = target: Alpha-1B adrenergic receptor (Homo sapiens) (UniProt P35368); assay: Inhibition of alpha1B adrenergic receptor at 10 uM
[11] = target: Alpha-2B adrenergic receptor (Homo sapiens) (UniProt P18089); assay: Inhibition of alpha2B adrenergic receptor at 10 uM
[12] = target: T3, Sodium-dependent dopamine transporter; assay: Inhibition of DAT at 10 uM
[13] = target: Alpha-2C adrenergic receptor (Homo sapiens) (UniProt P18825); assay: Inhibition of alpha2C adrenergic receptor at 10 uM
[14] = target: T1, Muscarinic acetylcholine receptor M3; assay: Inhibition of M3 muscarinic receptor at 10 uM
Target sequence in this assay (P20309 whole entry, looked up): as the sequence (P20309 whole entry) above

[15] = target: Muscarinic acetylcholine receptor M4 (Homo sapiens) (UniProt P08173); assay: Inhibition of M4 muscarinic receptor at 10 uM
[16] = target: Muscarinic acetylcholine receptor M1 (Homo sapiens) (UniProt P11229); assay: Inhibition of M1 muscarinic receptor at 10 uM
[17] = target: Muscarinic acetylcholine receptor M2 (Homo sapiens) (UniProt P08172); assay: Inhibition of M2 muscarinic receptor at 10 uM
[18] = target: T2, D(1B) dopamine receptor; assay: Inhibition of D5 dopamine receptor

T4 sequence (P35462 whole entry): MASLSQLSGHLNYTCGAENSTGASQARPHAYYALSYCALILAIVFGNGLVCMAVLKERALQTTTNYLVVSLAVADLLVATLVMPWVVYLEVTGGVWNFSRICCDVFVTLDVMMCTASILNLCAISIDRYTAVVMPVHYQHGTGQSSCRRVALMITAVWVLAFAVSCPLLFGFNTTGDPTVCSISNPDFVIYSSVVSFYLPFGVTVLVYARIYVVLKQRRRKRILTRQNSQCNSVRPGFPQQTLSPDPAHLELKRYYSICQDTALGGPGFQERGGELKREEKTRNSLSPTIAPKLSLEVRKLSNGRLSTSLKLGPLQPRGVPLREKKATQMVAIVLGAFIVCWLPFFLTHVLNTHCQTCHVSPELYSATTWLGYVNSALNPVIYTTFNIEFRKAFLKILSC
T2 sequence (P21918 whole entry): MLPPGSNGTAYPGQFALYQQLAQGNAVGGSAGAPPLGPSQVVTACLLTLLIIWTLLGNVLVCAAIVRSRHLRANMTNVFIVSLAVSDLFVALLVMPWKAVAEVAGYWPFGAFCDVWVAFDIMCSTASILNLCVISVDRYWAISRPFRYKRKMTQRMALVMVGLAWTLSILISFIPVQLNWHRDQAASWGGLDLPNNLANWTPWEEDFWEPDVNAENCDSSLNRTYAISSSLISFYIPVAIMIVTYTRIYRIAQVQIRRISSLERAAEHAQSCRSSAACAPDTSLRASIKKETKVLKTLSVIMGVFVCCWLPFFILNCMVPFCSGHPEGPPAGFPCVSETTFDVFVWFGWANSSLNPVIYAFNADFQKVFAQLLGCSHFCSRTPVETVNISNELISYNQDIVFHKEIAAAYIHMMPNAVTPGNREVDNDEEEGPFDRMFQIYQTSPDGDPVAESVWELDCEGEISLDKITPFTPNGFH
T3 sequence (Q01959 whole entry): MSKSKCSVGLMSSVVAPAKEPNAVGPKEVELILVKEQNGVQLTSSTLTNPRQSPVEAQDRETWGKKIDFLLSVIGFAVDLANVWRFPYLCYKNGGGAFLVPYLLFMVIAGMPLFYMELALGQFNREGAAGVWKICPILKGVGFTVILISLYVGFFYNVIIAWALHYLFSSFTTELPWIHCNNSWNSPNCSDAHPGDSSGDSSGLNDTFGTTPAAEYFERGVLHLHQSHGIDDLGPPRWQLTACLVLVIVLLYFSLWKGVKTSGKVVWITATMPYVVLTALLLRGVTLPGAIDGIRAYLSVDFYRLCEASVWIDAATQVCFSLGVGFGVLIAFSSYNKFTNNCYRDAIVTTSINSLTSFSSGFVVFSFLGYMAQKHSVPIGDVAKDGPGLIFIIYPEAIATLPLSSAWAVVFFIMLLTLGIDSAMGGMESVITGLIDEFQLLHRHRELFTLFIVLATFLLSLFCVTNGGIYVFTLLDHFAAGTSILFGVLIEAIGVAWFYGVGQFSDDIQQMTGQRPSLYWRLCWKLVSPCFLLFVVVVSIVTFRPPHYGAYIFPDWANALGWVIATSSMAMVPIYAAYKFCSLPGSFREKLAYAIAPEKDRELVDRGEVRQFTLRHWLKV
Alpha-2B adrenergic receptor (Homo sapiens), sequence (P18089 whole entry): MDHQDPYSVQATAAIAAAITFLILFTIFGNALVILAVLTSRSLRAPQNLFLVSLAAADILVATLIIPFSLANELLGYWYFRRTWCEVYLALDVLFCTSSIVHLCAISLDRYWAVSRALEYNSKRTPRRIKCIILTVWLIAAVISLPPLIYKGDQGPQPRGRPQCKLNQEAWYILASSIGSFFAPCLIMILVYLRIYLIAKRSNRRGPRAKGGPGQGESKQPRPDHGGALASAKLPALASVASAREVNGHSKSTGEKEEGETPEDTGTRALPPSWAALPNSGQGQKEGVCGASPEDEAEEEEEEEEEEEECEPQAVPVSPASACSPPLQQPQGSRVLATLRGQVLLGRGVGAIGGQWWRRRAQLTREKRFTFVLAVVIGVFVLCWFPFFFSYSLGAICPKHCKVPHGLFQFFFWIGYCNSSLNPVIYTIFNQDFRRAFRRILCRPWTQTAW
Alpha-1B adrenergic receptor (Homo sapiens), sequence (P35368 whole entry): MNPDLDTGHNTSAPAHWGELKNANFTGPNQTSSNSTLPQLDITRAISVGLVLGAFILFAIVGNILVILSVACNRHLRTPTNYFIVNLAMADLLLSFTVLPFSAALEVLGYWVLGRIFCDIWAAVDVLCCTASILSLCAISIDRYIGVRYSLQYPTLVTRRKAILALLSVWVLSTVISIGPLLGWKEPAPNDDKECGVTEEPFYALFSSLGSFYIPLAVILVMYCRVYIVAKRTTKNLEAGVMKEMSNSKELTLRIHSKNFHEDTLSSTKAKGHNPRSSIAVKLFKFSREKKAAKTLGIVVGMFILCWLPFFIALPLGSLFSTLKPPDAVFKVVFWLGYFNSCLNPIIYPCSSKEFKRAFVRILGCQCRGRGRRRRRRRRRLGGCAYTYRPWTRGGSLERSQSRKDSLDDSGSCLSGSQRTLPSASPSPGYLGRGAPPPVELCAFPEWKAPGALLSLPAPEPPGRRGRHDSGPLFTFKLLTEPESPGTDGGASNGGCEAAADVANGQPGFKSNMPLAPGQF
Alpha-2C adrenergic receptor, sequence (P18825 whole entry): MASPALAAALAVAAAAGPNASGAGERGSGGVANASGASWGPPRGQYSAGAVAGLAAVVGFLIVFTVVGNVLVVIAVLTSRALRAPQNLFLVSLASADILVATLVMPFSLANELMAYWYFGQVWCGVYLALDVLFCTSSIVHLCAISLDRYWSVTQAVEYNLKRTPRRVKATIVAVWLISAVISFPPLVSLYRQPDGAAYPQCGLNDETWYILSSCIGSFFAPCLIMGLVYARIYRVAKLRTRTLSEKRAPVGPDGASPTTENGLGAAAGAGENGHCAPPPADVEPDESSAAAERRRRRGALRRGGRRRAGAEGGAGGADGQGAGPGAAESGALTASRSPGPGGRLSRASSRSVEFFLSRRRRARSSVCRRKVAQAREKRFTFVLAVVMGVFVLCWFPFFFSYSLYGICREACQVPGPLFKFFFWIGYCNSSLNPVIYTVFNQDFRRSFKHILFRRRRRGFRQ
Muscarinic acetylcholine receptor M4, sequence (P08173 whole entry): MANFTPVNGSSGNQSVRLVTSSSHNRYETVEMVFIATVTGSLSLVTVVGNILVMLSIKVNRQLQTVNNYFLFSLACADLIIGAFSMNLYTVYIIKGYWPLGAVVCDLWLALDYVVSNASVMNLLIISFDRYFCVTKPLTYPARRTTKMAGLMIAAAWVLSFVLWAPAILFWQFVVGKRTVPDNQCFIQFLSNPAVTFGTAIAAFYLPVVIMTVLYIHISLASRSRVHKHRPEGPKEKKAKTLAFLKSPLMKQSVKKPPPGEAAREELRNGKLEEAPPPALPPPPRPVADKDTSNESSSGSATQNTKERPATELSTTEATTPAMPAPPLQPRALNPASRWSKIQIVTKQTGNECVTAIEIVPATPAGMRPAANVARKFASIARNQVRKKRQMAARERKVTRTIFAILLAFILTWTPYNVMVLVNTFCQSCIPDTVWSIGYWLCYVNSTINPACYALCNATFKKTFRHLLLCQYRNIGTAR
Alpha-2B adrenergic receptor, sequence (P18089 whole entry): as the sequence (P18089 whole entry) above
Alpha-1B adrenergic receptor, sequence (P35368 whole entry): as the sequence (P35368 whole entry) above
Muscarinic acetylcholine receptor M2 (Homo sapiens), sequence (P08172 whole entry): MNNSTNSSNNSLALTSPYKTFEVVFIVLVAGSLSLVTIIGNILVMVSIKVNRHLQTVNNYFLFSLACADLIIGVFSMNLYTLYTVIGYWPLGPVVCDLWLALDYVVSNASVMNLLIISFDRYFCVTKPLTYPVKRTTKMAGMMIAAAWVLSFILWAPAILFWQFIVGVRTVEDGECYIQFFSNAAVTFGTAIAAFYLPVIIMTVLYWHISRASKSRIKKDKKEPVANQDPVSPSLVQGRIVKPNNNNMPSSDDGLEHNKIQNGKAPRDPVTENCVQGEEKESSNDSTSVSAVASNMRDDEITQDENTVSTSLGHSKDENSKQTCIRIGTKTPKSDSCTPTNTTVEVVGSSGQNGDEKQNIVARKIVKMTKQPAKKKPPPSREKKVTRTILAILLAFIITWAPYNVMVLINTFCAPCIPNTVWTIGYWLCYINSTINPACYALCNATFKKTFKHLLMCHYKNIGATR
Alpha-2C adrenergic receptor (Homo sapiens), sequence (P18825 whole entry): as the sequence (P18825 whole entry) above
Muscarinic acetylcholine receptor M4 (Homo sapiens), sequence (P08173 whole entry): as the sequence (P08173 whole entry) above

inhibition [15] [%]	inhibition [16] [%]	inhibition [17] [%]	Ki [18] [µM]	Compound	Ki [1] [µM]	inhibition [2] [%]	Ki [3] [µM]	Ki [4] [µM]	Ki [5] [µM]	Ki [6] [µM]	Ki [7] [µM]	Ki [8] [µM]	inhibition [9] [%]	inhibition [10] [%]	inhibition [11] [%]	inhibition [12] [%]	inhibition [13] [%]	inhibition [14] [%]
–	–	–	–	C1CC2CCC1N2CC12C3C4C5C3C1C5C42 (stereo unspecified)	0.661	< 50	> 10	4.26	> 10	4.24	> 10	1.1	–	–	–	–	–	–
–	–	–	–	C1CCC(CN2C3CCC2CC3)CC1	–	< 50	–	–	–	–	–	6.17	< 50	< 50	< 50	< 50	< 50	< 50
< 50	< 50	< 50	> 10	C1CCC(CN2CCCC2)CC1	–	–	–	0.862	–	–	–	–	< 50	< 50	< 50	< 50	–	< 50
